Data as given in patent US4539149A, “β-Lactam antibacterial agents” (Beecham Group p.l.c., priority 1981, dated 1985).
Structures can show the parent of a compound that is named as a salt.

Legend:
[1] = tested on: E. coli 96 R+; test: in vivo test in mice against experimental infection, E. coli 96 R+; conditions: Escherichia coli, sc, mice (5 mice/group), s.c., dosed at 1 and 5 hours after infection, read-out: Total s.c. CD50
Method: (§1) The compound of Example 5 was tested in vivo in mice against experimental infections.
(§2) Organism Total* s.c. CD50 (Mg/Kg)
(§3) *dosed at 1 and 5 hours after infection

[2] = tested on: P. mirabilis 889; test: MIC against P. mirabilis 889; format: cell-based; conditions: Proteus mirabilis, 889, P. mirabilis 889
[3] = blood concentration in mice after subcutaneous administration; format: in vivo; conditions: mouse, sc, mice (5), 50 mg/kg
Method: The compound of Example 5 was administered to mice (5) by the subcutaneous route at a dosage of 50 mg/kg and the blood concentration determined.

[4] = tested on: E. coli 96 R-; test: in vivo test in mice against experimental infection, E. coli 96 R-; conditions: Escherichia coli, sc, mice (5 mice/group), s.c., dosed at 1 and 5 hours after infection, read-out: Total s.c. CD50
Method: as §1, §2, §3

[5] = tested on: K. aerogenes T767; test: in vivo test in mice against experimental infection, K. aerogenes T767; conditions: Klebsiella aerogenes, sc, mice (5 mice/group), s.c., dosed at 1 and 5 hours after infection, read-out: Total s.c. CD50
Method: as §1, §2, §3

What does the source list for `CCN1CCN(C(=O)N[C@@H](C(=O)N[C@]2(NC=O)C(=O)N3[C@@H](C(=O)O)C(C)(C)S[C@@H]32)c2ccc(O)cc2)C(=O)C1=O` [Example 5, 6α-Formamido-6β-[D-2-[(4-ethyl-2,3-dioxopiperazin-1-yl)carbonylamino]-2-(4-hydroxyphenyl)acetamido]penicillanic acid, sodium salt]?
ED50 [1]: 5.2 mg/kg; MIC [2]: 0.1 µg/mL; AUC [3]: 11000 ng·h/mL; concentration at 5 min ([3]; 5 mins): 24400 ng/mL; concentration at 10 min ([3]; 10 mins): 23200 ng/mL; concentration at 20 min ([3]; 20 mins): 14500 ng/mL; concentration at 0.5 h ([3]; 30 mins): 11000 ng/mL; concentration at 1 h ([3]; 60 mins): < 900 ng/mL; concentration at 2 h ([3]; 120 mins): < 900 ng/mL; ED50 [4]: < 3.1 mg/kg; ED50 [5]: 3.7 mg/kg
